A short description of this assay: Case of a subject with familial hypertriglyceridemia: blood lipid levels on fenofibrate alone, then on concomitant Omacor and fenofibrate. The assay is classed as in vivo, human. The arrangement: HDL-Cholesterol level / Non-HDL-Cholesterol level: unit not given here.
Setting [1] is: same subject, fenofibrate alone vs one month of concomitant therapy.

`CC(C)OC(=O)C(C)(C)Oc1ccc(C(=O)c2ccc(Cl)cc2)cc1` [Fenofibrate, 2-[4-(4-chlorobenzoyl)phenoxy]-2-methyl-propanoic acid, 1-methylethyl ester]: the TG level (person, fenofibrate (Antara 130 mg QD) about 2 weeks, then plus Omacor 4 grams/day QD for one month) came to 749 mg/dL. Under setting [1], this molecule returned an HDL-Cholesterol level of 28, a Non-HDL-Cholesterol level of 252 and a Total-Cholesterol level of 280 mg/dL.

Source of the values: patent US20060211749A1, “Treatment with omega-3 fatty acids and PPAR agonist and/or antagonist and a combination product thereof” (priority 2004, published 2006).
